Patent US20040171073A1, “Compounds for modulation of cholesterol transport” (Massachusetts Institute of Technology, priority 2002, published 2004)

target: T1, murine SR-BI (Mus musculus, UniProt Q61009); assay: Uptake of DiI from DiI-HDL by ldlA[mSR-BI] cells (high throughput screen and concentration dependence); assay type: cell-based; settings: Test 1
T1 construct: expressed in transfected cells; host or cells: ldlA-7 (LDL receptor deficient Chinese hamster ovary cells)
T1 sequence (Q61009 1-509): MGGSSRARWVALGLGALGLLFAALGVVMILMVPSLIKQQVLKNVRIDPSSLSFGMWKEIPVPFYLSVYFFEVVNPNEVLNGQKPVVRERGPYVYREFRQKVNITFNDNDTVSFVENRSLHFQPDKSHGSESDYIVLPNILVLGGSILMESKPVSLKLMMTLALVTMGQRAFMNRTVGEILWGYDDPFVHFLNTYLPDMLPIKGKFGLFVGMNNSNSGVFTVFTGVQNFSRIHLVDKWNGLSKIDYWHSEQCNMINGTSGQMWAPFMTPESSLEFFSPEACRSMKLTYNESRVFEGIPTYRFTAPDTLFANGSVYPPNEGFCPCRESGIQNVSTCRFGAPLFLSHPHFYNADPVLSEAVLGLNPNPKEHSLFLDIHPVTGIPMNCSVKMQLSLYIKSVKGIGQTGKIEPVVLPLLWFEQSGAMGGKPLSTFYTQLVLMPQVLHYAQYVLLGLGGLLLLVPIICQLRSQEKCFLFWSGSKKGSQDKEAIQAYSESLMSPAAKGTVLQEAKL

Compound | ENDOHDL Test 1
Clc1ccc(-c2nc3ccc4ccccc4c3c3c2CCCC3)cc1 [MIT 9952-156] | 0.57
CC1(C)CC(=O)C(=Cc2c(Cl)ccc3ccccc23)C(=O)C1 [MIT 9952-157] | 1.26
CCN(CC)CC(=O)Nc1ccc2c(c1)Nc1ccccc1CC2.Cl [MIT 9952-158] | 0.42
COc1ccc(COCC(Cl)CN2CCCCC2)cc1OC.Cl (stereo not shown) [MIT 9952-159] | 1.28
Cc1nc(-c2ccc([N+](=O)[O-])cc2)c(C(=O)Nc2ccccc2)s1 [MIT 9952-160] | 0.48
O=C(Nc1ccc(Cl)cc1)c1ccc(N2C(=O)c3ccc(C(=O)Nc4ccc(Cl)cc4)cc3C2=O)cc1 [MIT 9952-161] | 1.37
O=C(Nc1ccc(NC(=O)c2cccc([N+](=O)[O-])c2)c(Cl)c1)c1cccc([N+](=O)[O-])c1 [MIT 9952-162] | 0.55
CC1=C(C(=O)OCc2ccccc2)C(c2ccc(N(C)C)cc2)NC(=O)N1 (stereo not shown) [MIT 9952-163] | 0.6
C/C(=N\NC(=O)c1ccc(-c2ccccc2)cc1)c1cccc(N)c1 [MIT 9952-164] | 0.6
CCOC(=O)c1sc(-c2ccccc2)nc1-c1ccc([N+](=O)[O-])cc1 [MIT 9952-165] | 0.57
CC(F)(F)c1cccc(NC(=O)c2sc(-c3ccccc3)nc2-c2ccc([N+](=O)[O-])cc2)c1 [MIT 9952-166] | 0.56
O=C(CC1=CCCCC1)Nc1cc([N+](=O)[O-])ccc1O [MIT 9952-167] | 1.32
C=CC[n+]1c(C)n(CC)c2cc(Cl)c(Cl)cc21.[I-] [MIT 9952-169] | 0.54
O=C(N/N=C\c1ccccc1O)c1ccc(O)cc1 [MIT 9952-170] | 0.54
O=C1CC(S/C(=N\c2ccccc2)Nc2ccccc2)C(=O)N1c1cccc2ccccc12 (stereo not shown) [MIT 9952-171] | 0.58
O=C(Nc1ccc(Oc2ccc(Cl)c3cccnc23)c(Cl)c1)c1ccc([N+](=O)[O-])cc1 [MIT 9952-172] | 0.55
Nc1nc(N)nc(-c2cccc(-c3nc(N)nc(N)n3)c2)n1 [MIT 9952-173] | 1.96
CCOCc1c(C)cc(C)c(/C=N/Nc2ccc([N+](=O)[O-])cc2)c1C [MIT 9952-174] | 0.6
NC(=S)Nc1ccc2c(c1)Nc1ccccc1CC2 [MIT 9952-175] | 0.42
Clc1ccc(/N=C/c2ccc3c(c2)OCO3)nc1 [MIT 9952-176] | 1.36
CCc1c2cccn2cc(C)[n+]1C.[I-] [MIT 9952-177] | 0.68
CCN(CC)CC(=O)Nc1ccc2c(c1)N(C(=O)c1ccccc1)c1ccccc1CC2.Cl [MIT 9952-178] | 0.4
C=CCN1C(=O)[C@H]2Cc3c([nH]c4ccccc34)[C@@H](c3ccc4c(c3)OCO4)N2C1=S [MIT 9952-179] | 0.54
COC(=O)Cn1c2c(c3cc(C)ccc31)CCCC2NC(C)c1ccccc1 (stereo not shown) [MIT 9952-180] | 0.43
C/C(CS(=O)(=O)c1ccc(C)cc1)=N/NC(N)=S [MIT 9952-181] | 0.6
COc1ccc(NC(=O)Oc2cc(C(C)(C)C)cc(C(C)(C)C)c2)cc1Cl [MIT 9952-182] | 0.71

same assay, conditions: Test 2

Compound | ENDOHDL Test 2
Clc1ccc(-c2nc3ccc4ccccc4c3c3c2CCCC3)cc1 [MIT 9952-156] | 0.62
CC1(C)CC(=O)C(=Cc2c(Cl)ccc3ccccc23)C(=O)C1 [MIT 9952-157] | 1.21
CCN(CC)CC(=O)Nc1ccc2c(c1)Nc1ccccc1CC2.Cl [MIT 9952-158] | 0.39
COc1ccc(COCC(Cl)CN2CCCCC2)cc1OC.Cl (stereo not shown) [MIT 9952-159] | 1.23
Cc1nc(-c2ccc([N+](=O)[O-])cc2)c(C(=O)Nc2ccccc2)s1 [MIT 9952-160] | 0.55
O=C(Nc1ccc(Cl)cc1)c1ccc(N2C(=O)c3ccc(C(=O)Nc4ccc(Cl)cc4)cc3C2=O)cc1 [MIT 9952-161] | 1.5
O=C(Nc1ccc(NC(=O)c2cccc([N+](=O)[O-])c2)c(Cl)c1)c1cccc([N+](=O)[O-])c1 [MIT 9952-162] | 0.4
CC1=C(C(=O)OCc2ccccc2)C(c2ccc(N(C)C)cc2)NC(=O)N1 (stereo not shown) [MIT 9952-163] | 0.69
C/C(=N\NC(=O)c1ccc(-c2ccccc2)cc1)c1cccc(N)c1 [MIT 9952-164] | 0.61
CCOC(=O)c1sc(-c2ccccc2)nc1-c1ccc([N+](=O)[O-])cc1 [MIT 9952-165] | 0.6
CC(F)(F)c1cccc(NC(=O)c2sc(-c3ccccc3)nc2-c2ccc([N+](=O)[O-])cc2)c1 [MIT 9952-166] | 0.67
O=C(CC1=CCCCC1)Nc1cc([N+](=O)[O-])ccc1O [MIT 9952-167] | 1.18
C=CC[n+]1c(C)n(CC)c2cc(Cl)c(Cl)cc21.[I-] [MIT 9952-169] | 0.6
O=C(N/N=C\c1ccccc1O)c1ccc(O)cc1 [MIT 9952-170] | 0.54
O=C1CC(S/C(=N\c2ccccc2)Nc2ccccc2)C(=O)N1c1cccc2ccccc12 (stereo not shown) [MIT 9952-171] | 0.54
O=C(Nc1ccc(Oc2ccc(Cl)c3cccnc23)c(Cl)c1)c1ccc([N+](=O)[O-])cc1 [MIT 9952-172] | 0.56
Nc1nc(N)nc(-c2cccc(-c3nc(N)nc(N)n3)c2)n1 [MIT 9952-173] | 1.61
CCOCc1c(C)cc(C)c(/C=N/Nc2ccc([N+](=O)[O-])cc2)c1C [MIT 9952-174] | 0.62
NC(=S)Nc1ccc2c(c1)Nc1ccccc1CC2 [MIT 9952-175] | 0.51
Clc1ccc(/N=C/c2ccc3c(c2)OCO3)nc1 [MIT 9952-176] | 1.17
CCc1c2cccn2cc(C)[n+]1C.[I-] [MIT 9952-177] | 0.49
CCN(CC)CC(=O)Nc1ccc2c(c1)N(C(=O)c1ccccc1)c1ccccc1CC2.Cl [MIT 9952-178] | 0.38
C=CCN1C(=O)[C@H]2Cc3c([nH]c4ccccc34)[C@@H](c3ccc4c(c3)OCO4)N2C1=S [MIT 9952-179] | 0.54
COC(=O)Cn1c2c(c3cc(C)ccc31)CCCC2NC(C)c1ccccc1 (stereo not shown) [MIT 9952-180] | 0.45
C/C(CS(=O)(=O)c1ccc(C)cc1)=N/NC(N)=S [MIT 9952-181] | 0.54
COc1ccc(NC(=O)Oc2cc(C(C)(C)C)cc(C(C)(C)C)c2)cc1Cl [MIT 9952-182] | 0.41
